The text below walks through data of patent US4163058A, “Derivatives of 5,5-diphenylhydantoin exhibiting enhanced solubility and the therapeutic use thereof” (INTERX Research Corporation, priority 1977, dated 1979).

Read-outs that look alike come from different tables or passages of the source. Where only a bound is given, the exact number is not on record here.

As usually defined, the solubility is the dissolved amount per volume that the medium holds.

The conditions of data set [1]: in vivo, iv; cited from earlier work.
The conditions of data set [2]: in vivo; cited from earlier work.
The conditions of data set [3]: oral, sodium salt; due to alkalinity of the dosage form; cited from earlier work.
Data set [4] can be described thus: aqueous solubility (compound added in increments to water until solubility was determined). In kind it is physicochemical. The protocol: The compound was added in increments to water until solubility was determined.
The conditions of data set [5]: aqueous; comparison value for the parent; cited from earlier work.
For data set [6] the following is noted: cited from earlier work.
For data set [7] the following is noted: 37° C.; cited from earlier work.

On to `O=C1NC(=O)C(c2ccccc2)(c2ccccc2)N1.[Na]`, for which the “precipitation and blood levels” value in data set [1] is listed as “frequently leads to precipitation of 5,5-diphenylhydantoin as well as erractic blood levels”. Moreover, the “precipitation at the injection site and release” value in data set [2] is “precipitate 5,5-diphenylhydantoin at the injection site leading to delayed and erractic 5,5-diphenylhydantoin release”. Moreover, the gastric irritation result in data set [3] is given as “frequently causes gastric irritation”.

In data set [4] (in water), `CN(C)CC(=O)OCN1C(=O)NC(c2ccccc2)(c2ccccc2)C1=O` [3-(N,N-dimethylglycyloxymethyl)diphenylhydantoin methanesulfonate] registered a solubility of over 100 mg/mL. The “increase in aqueous solubility over diphenylhydantoin” value in data set [4] (versus diphenylhydantoin per se) is reported as ~5,000 fold.

For the compound `O=C1NC(=O)C(c2ccccc2)(c2ccccc2)N1` [5,5-diphenylhydantoin], the “solubility of the parent specie” value in data set [5] is reported as “less than 0.02 mg/ml”. In data set [6] (both in vitro and in vivo), the release patterns entry is “often produces unpredictable and erractic release patterns”. The bioavailability result in data set [6] (per se as well as from pharmaceutical dosage forms) is “low bioavailability”. Besides, the solubility result in data set [7] is recorded as “less than 2 mg. in 100 ml”.
